For one assay, the target named is T1, thrombin (Homo sapiens, UniProt P00734).
T1 construct: residues in the termini of the light chain; and in the autolysis loop and C-terminus of the heavy chain; purchased Chemo-Sero-Therapeutic Research Institute (Kaketsuken, Japan), as a gift, not bought
In words: Cleavage of peptide by thrombin (RP-HPLC, ESI-MS). Format: biochemical. As for the experimental part:
A. Evaluation of avathrin cleavage by thrombin by HPLC chromatograms. Avathrin (150 μM) was incubated with thrombin (5 μM) for various times and the reaction mixtures were separated using RP-HPLC; the masses of the cleavage products were analyzed with ESI-MS. At 0 min (upper panel), a single peak corresponding to full length avathrin (mass 3139 Da) was identified. At 120 min (middle panel), two new peaks corresponding to N-terminal cleavage product (^1[…]^10 of SEQ ID NO: 1; mass 982 Da) and C-terminal cleavage product ([…] (SEQ ID NO: 4); mass 2176 Da) were identified in addition to avathrin peak. At 600 min (lower panel), two peaks corresponding to the N- and C-terminal cleaved products were observed while avathrin peak was not observed, indicating complete cleavage. B. Time-dependent cleavage of avathrin by thrombin. Relative percentages of avathrin, its N- and C-terminal cleavage products were quantified by calculating areas under the curve. Each data point is the mean±S.D. of at least three independent experiments. C. Effect of thrombin cleavage on inhibitory properties of avathrin. Avathrin was incubated with thrombin (0.81 nM) for up to 36 h, and assayed at different time points for its ability to inhibit thrombin amidolytic activity on the chromogenic substrate S2238. […]
Thrombin amidolytic activity assays for all peptides were performed in 96-wells microtiter plates in 50 mM Tris buffer (pH 7.4) containing 100 mM NaCl and 1 mg/ml bovine serum albumin. […] The rates of formation of p-nitroaniline were followed by measuring the absorbance at 405 nm for 10 min with a Tecan InfinitePro M200 microplate reader from Tecan (Männedorf, Switzerland). […] To measure the inhibitory constants, different concentrations of S2238 were used and the residual velocities were determined using the Morrison's tight binding equation. Inhibition of thrombin fibrinogenolytic activity of peptides were tested by measuring absorbance at 650 nm using a Sunrise microplate reader from Tecan (Männedorf, Switzerland) as described previously [Koh C Y, et al., J Biol Chem 282: 29101-13 (2007)]. […] Effects of avathrin on the amidolytic activities of these serine proteases were determined using respective chromogenic substrates. […] After different incubation times, reactions were quenched with 1% TFA (pH 1.8) and loaded onto a Jupiter Proteo column (4 μm, 90 Å, 100×1.0 mm) attached to a Dionex nano-HPLC system from Thermo Fisher Scientific (Waltham, Mass., USA) and eluted using an acetonitrile gradient with 0.05% TFA and 99.95% MilliQ water as eluent A and 0.05% TFA, 19.95% MilliQ water and 80% ACN as eluent B. Masses of all peaks were measured to identify cleavage products, which were subsequently quantified by integrating the peaks and calculating the area under the curves. […]

Assay [1] relates to platelets (ADP-induced platelet aggregation). In words: Preservation of platelet function in blood tubes (Multiplate, ADP-induced platelet aggregation). Format: cell-based, human (healthy volunteers). As to conditions: ADP agonist. The method, then:
Individual peptides are dissolved in phosphate buffered saline to prepare 10× peptide solutions (ie. concentrations of peptides are 10 times higher than the final concentrations at which they are to be tested). 0.3 ml of the 10× peptide solutions are placed in blood tubes without any additives. Blood was drawn from healthy volunteers using syringes and immediately transferred to a 50 ml conical centrifuge tube (Falcon tube) before pipetting 2.7 ml of the blood into blood tubes with peptide solutions. Final concentrations of peptides are as stated in Table 5 and 6.
Blood tubes with various peptides at different concentrations were left standing at room temperature until tested at designated times. At different time points, tubes were inverted several times and blood samples were taken out for platelet aggregation tests using a Multiplate® Platelet aggregometer with adenosine diphosphate (ADP) as agonist according to manufacturer's recommended protocols.

Peptide text beside a SMILES is read from it.

Consider `CC[C@H](C)[C@H](NC(=O)[C@H](CCCCN)NC(=O)[C@@H]1CCCN1C(=O)[C@@H](NC(=O)[C@H](C)NC(=O)[C@@H](NC(=O)[C@H](CCC(N)=O)NC(=O)[C@H](Cc1c[nH]cn1)NC(=O)CNC(=O)CNC(=O)[C@@H](N)CO)[C@@H](C)O)C(C)C)C(=O)N[C@@H](CO)C(=O)N[C@@H](CCCCN)C(=O)N[C@@H](CCC(N)=O)C(=O)NCC(=O)N[C@@H](CC(C)C)C(=O)NCC(=O)NCC(=O)N[C@@H](CC(=O)O)C(=O)N[C@@H](Cc1ccccc1)C(=O)N[C@@H](CCC(=O)O)C(=O)N[C@@H](CCC(=O)O)C(=O)N[C@H](C(=O)N1CCC[C@H]1C(=O)N[C@@H](CO)C(=O)N[C@@H](CC(=O)O)C(=O)N[C@@H](CCC(=O)O)C(=O)N[C@H](C(=O)N[C@H](C(=O)N[C@@H](CCC(=O)O)C(=O)O)[C@@H](C)CC)[C@@H](C)CC)[C@@H](C)CC` [Avathrin] (H-SGGHQTAVPKISKQGLGGDFEEIPSDEIIE-OH; N-terminus and C-terminus assumed), for which the “time at which complete cleavage by thrombin was observed” value on thrombin (avathrin 150 μM, thrombin 5 μM) is 600 min. The “Multiplate AUC (U)” value in assay [1] (1.5 h, peptide 150 μM) is on record as 60.9 U; in assay [1] (1.5 h, peptide 300 μM), 62.4 U; in assay [1] (4 h, peptide 150 μM), 53.6 U; in assay [1] (4 h, peptide 300 μM) it was 46.8 U; in assay [1] (24 h, peptide 150 μM), 55.8 U; in assay [1] (24 h, peptide 300 μM), 43.3 U. Besides, the “Multiplate AUC (U)” value in assay [1] (48 h, peptide 300 μM) came out at 3.5 U.

`CC[C@H](C)[C@H](NC(=O)[C@H](C)NC(=O)[C@H](CC(=O)O)NC(=O)[C@H](CC(=O)O)NC(=O)[C@@H]1CCCN1C(=O)[C@@H](NC(=O)[C@H](CCC(=O)O)NC(=O)[C@H](CCC(=O)O)NC(=O)[C@H](Cc1ccccc1)NC(=O)[C@H](CC(=O)O)NC(=O)CNC(=O)[C@@H]1CCCN1C(=O)[C@@H]1CCCN1C(=O)[C@H](C)NC(=O)[C@@H](NC(=O)[C@H](CO)NC(=O)[C@H](Cc1ccc(O)cc1)NC(=O)[C@H](CCSC)NC(=O)[C@H](CCCCN)NC(=O)[C@@H]1CCCN1C(=O)[C@@H](NC(=O)[C@H](C)NC(=O)[C@H](CCCNC(=N)N)NC(=O)[C@@H](NC(=O)[C@H](C)NC(=O)[C@H](CCC(=O)O)NC(=O)[C@H](CC(=O)O)NC(=O)[C@@H](N)CO)C(C)C)[C@@H](C)CC)[C@@H](C)O)[C@@H](C)CC)C(=O)N[C@@H](CCC(=O)O)C(=O)N[C@@H](CCC(=O)O)C(=O)O` [Ultravariegin] (H-SDEAVRAIPKMYSTAPPGDFEEIPDDAIEE-OH; N-terminus and C-terminus assumed): the “time to complete cleavage by thrombin” value on thrombin (peptide incubated with thrombin (30:1)) was 18 h. Moreover, the “Multiplate AUC (U)” value in assay [1] (1.5 h, peptide 150 μM) is 55.7 U; in assay [1] (1.5 h, peptide 300 μM), 66.3 U; in assay [1] (4 h, peptide 150 μM), 52 U; in assay [1] (4 h, peptide 300 μM) it was 46.1 U; in assay [1] (24 h, peptide 150 μM) it was 43.1 U; in assay [1] (24 h, peptide 300 μM) it was 39.5 U. The “Multiplate AUC (U)” value is listed as 7.4 U in assay [1] (48 h, peptide 150 μM); 25.4 U in assay [1] (48 h, peptide 300 μM); 9.6 U in assay [1] (72 h, peptide 150 μM); 15.4 U in assay [1] (72 h, peptide 300 μM).

The record behind these values is patent publication US10906946B2, “Thrombin inhibitors” (priority 2015, dated 2021).
